Measured values reported in US20230074545A1, “TREATMENT OF CANCER WITH CDK12/13 INHIBITORS” (Kinnate Biopharma Inc., priority 2019, published 2023).

Key:
Experiment in all cases: Radiometric kinase panel
Format in all cases: biochemical
IGF1R = target: T1, IGF1R (Homo sapiens, UniProt P08069)
T1 construct: either as full-length or enzymatically active fragments; purchased ProQinase GmbH (Reaction Biology); host or cells: Sf9 insect cells or E. coli
Procedure, shortened: (§1)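 Activity was measured radiometrically from [gamma-33P]-ATP incorporation into substrate. The kinases were recombinant human GST- or His-tagged proteins, full-length or active fragments, expressed in Sf9 or E. coli. Compound in 10% DMSO was added before the enzyme/substrate mix, which started the reaction.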

LIMK1 = target: T2, LIMK1 (Homo sapiens, UniProt P53667)
T2 construct: either as full-length or enzymatically active fragments; purchased ProQinase GmbH (Reaction Biology)
Procedure, shortened: as §1

PDGFRalpha = target: T3, PDGFRalpha (Homo sapiens, UniProt P16234)
T3 construct: either as full-length or enzymatically active fragments; purchased ProQinase GmbH (Reaction Biology)
Procedure, shortened: as §1

TRKB = target: T4, TRKB (Homo sapiens, UniProt Q16620)
T4 construct: purchased ProQinase GmbH (Reaction Biology)
Procedure, shortened: as §1

IKKalpha = target: T5, IKKalpha (Homo sapiens, UniProt O15111)
T5 construct: either as full-length or enzymatically active fragments; purchased ProQinase GmbH (Reaction Biology)
Procedure, shortened: as §1

CAMK2B = target: T6, CAMK2B (Homo sapiens, UniProt Q13554)
T6 construct: either as full-length or enzymatically active fragments; purchased ProQinase GmbH (Reaction Biology)
Procedure, shortened: as §1

CLK4 = target: T7, CLK4 (Homo sapiens, UniProt Q9HAZ1)
T7 construct: purchased ProQinase GmbH (Reaction Biology)
Procedure, shortened: as §1

DYRK1B = target: T8, DYRK1B (Homo sapiens, UniProt Q9Y463)
T8 construct: either as full-length or enzymatically active fragments; purchased ProQinase GmbH (Reaction Biology)
Procedure, shortened: as §1

FES = target: T9, FES (Homo sapiens, UniProt P07332)
T9 construct: purchased ProQinase GmbH (Reaction Biology)
Procedure, shortened: as §1

MARK3 = target: T10, MARK3 (Homo sapiens, UniProt P27448)
T10 construct: either as full-length or enzymatically active fragments; purchased ProQinase GmbH (Reaction Biology); host or cells: Sf9 insect cells or E. coli
Procedure, shortened: as §1

MAP3K7/MAP3K7IP1 = target: T11, MAP3K7/MAP3K7IP1 (Homo sapiens, UniProt O43318)
T11 construct: either as full-length or enzymatically active fragments; purchased ProQinase GmbH (Reaction Biology)
T11 sequence (O43318 whole entry, the tested form may be a part): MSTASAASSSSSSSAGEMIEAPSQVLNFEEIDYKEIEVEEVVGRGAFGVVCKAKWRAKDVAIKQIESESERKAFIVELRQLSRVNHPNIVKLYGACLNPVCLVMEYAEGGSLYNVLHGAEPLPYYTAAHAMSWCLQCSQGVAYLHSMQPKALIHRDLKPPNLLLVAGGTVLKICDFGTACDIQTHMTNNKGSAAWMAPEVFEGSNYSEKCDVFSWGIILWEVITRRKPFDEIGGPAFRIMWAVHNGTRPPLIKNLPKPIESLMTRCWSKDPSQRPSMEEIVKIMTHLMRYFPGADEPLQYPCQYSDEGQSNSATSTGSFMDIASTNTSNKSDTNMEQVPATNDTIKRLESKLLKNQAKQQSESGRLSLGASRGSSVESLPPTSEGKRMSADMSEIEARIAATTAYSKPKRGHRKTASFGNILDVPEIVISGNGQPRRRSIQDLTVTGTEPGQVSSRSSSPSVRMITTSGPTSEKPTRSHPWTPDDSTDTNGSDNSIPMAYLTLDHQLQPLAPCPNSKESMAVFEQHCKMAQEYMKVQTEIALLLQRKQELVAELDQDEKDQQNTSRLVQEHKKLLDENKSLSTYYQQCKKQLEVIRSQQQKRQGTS
T11 sequence (Q15750 whole entry partner, the tested form may be a part): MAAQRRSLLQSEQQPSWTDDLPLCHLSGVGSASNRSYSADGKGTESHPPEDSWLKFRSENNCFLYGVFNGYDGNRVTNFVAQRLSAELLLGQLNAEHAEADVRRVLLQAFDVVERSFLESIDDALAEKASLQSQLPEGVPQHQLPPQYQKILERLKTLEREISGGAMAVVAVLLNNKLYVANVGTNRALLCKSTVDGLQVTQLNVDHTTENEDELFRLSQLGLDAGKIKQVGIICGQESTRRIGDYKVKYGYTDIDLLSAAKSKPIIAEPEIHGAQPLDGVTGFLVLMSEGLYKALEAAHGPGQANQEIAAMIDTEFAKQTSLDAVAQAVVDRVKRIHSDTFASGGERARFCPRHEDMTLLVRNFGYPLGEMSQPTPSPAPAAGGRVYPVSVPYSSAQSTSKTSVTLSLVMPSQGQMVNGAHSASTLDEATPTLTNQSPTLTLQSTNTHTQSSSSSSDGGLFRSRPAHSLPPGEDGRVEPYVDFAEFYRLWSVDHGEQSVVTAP
Procedure, shortened: as §1

PAK4 = target: T12, PAK4 (Homo sapiens, UniProt O96013)
T12 construct: either as full-length or enzymatically active fragments; purchased ProQinase GmbH (Reaction Biology)
Procedure, shortened: as §1

SIK2 = target: T13, SIK2 (Homo sapiens, UniProt Q9H0K1)
T13 construct: either as full-length or enzymatically active fragments; purchased ProQinase GmbH (Reaction Biology)
Procedure, shortened: as §1

ACVR1 = target: T14, ACVR1 (Homo sapiens, UniProt Q04771)
T14 construct: purchased ProQinase GmbH (Reaction Biology)
Procedure, shortened: as §1

CK2alpha2 = target: T15, CK2alpha2 (Homo sapiens, UniProt P19784)
T15 construct: either as full-length or enzymatically active fragments; purchased ProQinase GmbH (Reaction Biology)
Procedure, shortened: as §1

PKCalpha = target: T16, PKCalpha (Homo sapiens, UniProt P17252)
T16 construct: either as full-length or enzymatically active fragments; purchased ProQinase GmbH (Reaction Biology)
Procedure, shortened: as §1

CK1epsilon = target: T17, CK1epsilon (Homo sapiens, UniProt P49674)
T17 construct: either as full-length or enzymatically active fragments; purchased ProQinase GmbH (Reaction Biology)
Procedure, shortened: as §1

CDK6/CycD1 = target: T18, CDK6/CycD1 (Homo sapiens, UniProt Q00534)
T18 construct: purchased ProQinase GmbH (Reaction Biology); host or cells: Sf9 insect cells or E. coli (not specified per kinase)
T18 sequence (Q00534 whole entry): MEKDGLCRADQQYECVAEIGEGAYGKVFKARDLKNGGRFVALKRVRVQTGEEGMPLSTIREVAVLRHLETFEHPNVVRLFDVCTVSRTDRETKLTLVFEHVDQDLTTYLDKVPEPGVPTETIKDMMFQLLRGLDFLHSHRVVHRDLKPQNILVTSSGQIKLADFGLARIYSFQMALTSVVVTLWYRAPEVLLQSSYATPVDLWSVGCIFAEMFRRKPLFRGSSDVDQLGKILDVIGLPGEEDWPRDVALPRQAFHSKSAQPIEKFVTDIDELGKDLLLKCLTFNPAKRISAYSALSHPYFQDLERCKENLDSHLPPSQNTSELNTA
T18 sequence (P24385 whole entry partner): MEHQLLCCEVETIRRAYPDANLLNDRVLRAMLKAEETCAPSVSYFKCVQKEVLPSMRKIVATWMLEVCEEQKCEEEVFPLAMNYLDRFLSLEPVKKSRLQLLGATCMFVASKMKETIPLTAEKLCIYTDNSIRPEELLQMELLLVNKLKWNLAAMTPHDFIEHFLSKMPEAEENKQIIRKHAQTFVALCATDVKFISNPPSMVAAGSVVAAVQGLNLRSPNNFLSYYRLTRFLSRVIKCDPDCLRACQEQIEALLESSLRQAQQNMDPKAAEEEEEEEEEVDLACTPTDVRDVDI
Procedure, shortened: as §1

GRK6 = target: T19, GRK6 (Homo sapiens, UniProt P43250)
T19 construct: purchased ProQinase GmbH (Reaction Biology)
Procedure, shortened: as §1

DAPK1 = target: T20, DAPK1 (Homo sapiens, UniProt P53355)
T20 construct: either as full-length or enzymatically active fragments; purchased ProQinase GmbH (Reaction Biology); host or cells: Sf9 insect cells or E. coli
T20 sequence (P53355 whole entry, the tested form may be a part): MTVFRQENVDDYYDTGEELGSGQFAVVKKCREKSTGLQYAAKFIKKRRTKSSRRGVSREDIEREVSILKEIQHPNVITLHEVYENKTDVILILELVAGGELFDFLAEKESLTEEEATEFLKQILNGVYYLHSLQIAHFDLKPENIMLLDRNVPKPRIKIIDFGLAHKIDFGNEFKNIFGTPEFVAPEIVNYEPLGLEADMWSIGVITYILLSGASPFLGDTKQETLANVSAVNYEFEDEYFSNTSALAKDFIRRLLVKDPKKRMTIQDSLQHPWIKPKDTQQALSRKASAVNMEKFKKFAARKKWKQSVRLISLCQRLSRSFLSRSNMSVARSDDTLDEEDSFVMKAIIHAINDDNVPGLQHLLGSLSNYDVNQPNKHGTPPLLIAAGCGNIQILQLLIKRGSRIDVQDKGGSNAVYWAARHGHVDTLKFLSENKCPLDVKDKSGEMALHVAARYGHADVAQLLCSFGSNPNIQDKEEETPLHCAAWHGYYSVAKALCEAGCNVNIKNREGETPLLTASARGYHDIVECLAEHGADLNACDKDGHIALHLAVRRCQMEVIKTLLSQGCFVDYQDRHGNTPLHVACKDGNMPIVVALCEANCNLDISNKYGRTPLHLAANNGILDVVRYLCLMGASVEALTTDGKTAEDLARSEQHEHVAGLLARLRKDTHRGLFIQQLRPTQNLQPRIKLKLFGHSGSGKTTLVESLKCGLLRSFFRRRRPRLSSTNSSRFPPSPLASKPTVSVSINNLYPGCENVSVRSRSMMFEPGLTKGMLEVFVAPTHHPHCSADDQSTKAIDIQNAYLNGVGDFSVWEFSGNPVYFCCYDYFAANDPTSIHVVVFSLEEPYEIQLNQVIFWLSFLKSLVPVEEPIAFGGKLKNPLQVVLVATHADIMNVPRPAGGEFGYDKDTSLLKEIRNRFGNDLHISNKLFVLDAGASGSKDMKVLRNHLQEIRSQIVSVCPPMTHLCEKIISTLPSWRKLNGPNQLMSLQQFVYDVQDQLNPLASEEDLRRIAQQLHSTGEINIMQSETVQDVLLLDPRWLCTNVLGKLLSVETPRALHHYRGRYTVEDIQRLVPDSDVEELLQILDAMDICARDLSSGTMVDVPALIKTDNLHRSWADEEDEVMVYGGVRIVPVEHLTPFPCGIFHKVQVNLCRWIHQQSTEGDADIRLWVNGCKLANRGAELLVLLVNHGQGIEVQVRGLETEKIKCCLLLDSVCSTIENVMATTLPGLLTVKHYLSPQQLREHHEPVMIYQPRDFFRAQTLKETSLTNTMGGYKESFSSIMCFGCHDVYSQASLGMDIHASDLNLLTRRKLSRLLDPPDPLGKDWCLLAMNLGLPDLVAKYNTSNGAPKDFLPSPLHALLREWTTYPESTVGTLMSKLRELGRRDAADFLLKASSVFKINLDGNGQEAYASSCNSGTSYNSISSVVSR
Procedure, shortened: as §1

CDK3/CycE1 = target: T21, CDK3/CycE1 (Homo sapiens, UniProt Q00526)
T21 construct: either as full-length or enzymatically active fragments; purchased ProQinase GmbH (Reaction Biology)
Procedure, shortened: as §1

MEK2 = target: T22, MEK2 (Homo sapiens, UniProt P36507)
T22 construct: either as full-length or enzymatically active fragments; purchased ProQinase GmbH (Reaction Biology)
Procedure, shortened: as §1

CDK9/CycK = target: T23, CDK9/CycK (Homo sapiens, UniProt P50750)
T23 construct: either as full-length or enzymatically active fragments; purchased ProQinase GmbH (Reaction Biology)
Procedure, shortened: as §1

TSSK1 = target: T24, TSSK1 (Homo sapiens, UniProt Q9BXA7)
T24 construct: either as full-length or enzymatically active fragments; purchased ProQinase GmbH (Reaction Biology)
Procedure, shortened: as §1

CDK2/CycE1 = target: T25, CDK2/CycE1 (Homo sapiens, UniProt P24941)
T25 construct: either as full-length or enzymatically active fragments; purchased ProQinase GmbH (Reaction Biology); host or cells: Sf9 insect cells or E. coli (not specified per kinase)
Procedure, shortened: as §1

CAMKK1 = target: T26, CAMKK1 (Homo sapiens, UniProt Q8N5S9)
T26 construct: either as full-length or enzymatically active fragments; purchased ProQinase GmbH (Reaction Biology)
T26 sequence (Q8N5S9 whole entry, the tested form may be a part): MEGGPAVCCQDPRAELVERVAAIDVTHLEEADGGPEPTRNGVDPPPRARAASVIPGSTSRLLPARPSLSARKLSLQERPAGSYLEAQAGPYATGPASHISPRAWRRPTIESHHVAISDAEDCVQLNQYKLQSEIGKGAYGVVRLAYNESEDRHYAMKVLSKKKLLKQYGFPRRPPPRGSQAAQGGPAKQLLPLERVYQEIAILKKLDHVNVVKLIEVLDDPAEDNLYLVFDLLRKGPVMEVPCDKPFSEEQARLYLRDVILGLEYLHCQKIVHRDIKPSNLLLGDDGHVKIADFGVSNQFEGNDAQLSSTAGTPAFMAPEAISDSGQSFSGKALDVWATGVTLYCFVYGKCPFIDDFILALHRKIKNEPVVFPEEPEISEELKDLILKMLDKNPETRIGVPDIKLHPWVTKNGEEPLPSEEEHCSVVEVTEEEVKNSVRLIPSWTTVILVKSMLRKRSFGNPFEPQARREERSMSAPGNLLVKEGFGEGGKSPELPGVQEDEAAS
Procedure, shortened: as §1

RIPK5 = target: T27, RIPK5 (Homo sapiens, UniProt Q6XUX3)
T27 construct: purchased ProQinase GmbH (Reaction Biology)
Procedure, shortened: as §1

DAPK2 = target: T28, DAPK2 (Homo sapiens, UniProt Q9UIK4)
T28 construct: either as full-length or enzymatically active fragments; purchased ProQinase GmbH (Reaction Biology); host or cells: Sf9 insect cells or E. coli (not specified per kinase)
Procedure, shortened: as §1

CLK1 = target: T29, CLK1 (Homo sapiens, UniProt P49759)
T29 construct: either as full-length or enzymatically active fragments; purchased ProQinase GmbH (Reaction Biology)
T29 sequence (P49759 whole entry, the tested form may be a part): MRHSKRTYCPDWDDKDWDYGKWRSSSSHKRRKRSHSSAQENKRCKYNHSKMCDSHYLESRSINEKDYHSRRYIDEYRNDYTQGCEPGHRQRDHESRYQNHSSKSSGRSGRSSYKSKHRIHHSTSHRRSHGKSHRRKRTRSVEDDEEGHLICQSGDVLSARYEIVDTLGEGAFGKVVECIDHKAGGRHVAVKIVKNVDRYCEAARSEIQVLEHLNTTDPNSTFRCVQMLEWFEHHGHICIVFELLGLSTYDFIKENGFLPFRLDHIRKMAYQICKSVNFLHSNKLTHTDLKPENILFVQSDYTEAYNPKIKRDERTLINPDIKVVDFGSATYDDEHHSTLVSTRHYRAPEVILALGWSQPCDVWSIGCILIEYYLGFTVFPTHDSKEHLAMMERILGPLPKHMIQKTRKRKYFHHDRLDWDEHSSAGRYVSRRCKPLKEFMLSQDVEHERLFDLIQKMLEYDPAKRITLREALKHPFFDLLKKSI
Procedure, shortened: as §1

HRI = target: T30, HRI (Homo sapiens, UniProt Q9BQI3)
T30 construct: either as full-length or enzymatically active fragments; purchased ProQinase GmbH (Reaction Biology)
T30 sequence (Q9BQI3 whole entry, the tested form may be a part): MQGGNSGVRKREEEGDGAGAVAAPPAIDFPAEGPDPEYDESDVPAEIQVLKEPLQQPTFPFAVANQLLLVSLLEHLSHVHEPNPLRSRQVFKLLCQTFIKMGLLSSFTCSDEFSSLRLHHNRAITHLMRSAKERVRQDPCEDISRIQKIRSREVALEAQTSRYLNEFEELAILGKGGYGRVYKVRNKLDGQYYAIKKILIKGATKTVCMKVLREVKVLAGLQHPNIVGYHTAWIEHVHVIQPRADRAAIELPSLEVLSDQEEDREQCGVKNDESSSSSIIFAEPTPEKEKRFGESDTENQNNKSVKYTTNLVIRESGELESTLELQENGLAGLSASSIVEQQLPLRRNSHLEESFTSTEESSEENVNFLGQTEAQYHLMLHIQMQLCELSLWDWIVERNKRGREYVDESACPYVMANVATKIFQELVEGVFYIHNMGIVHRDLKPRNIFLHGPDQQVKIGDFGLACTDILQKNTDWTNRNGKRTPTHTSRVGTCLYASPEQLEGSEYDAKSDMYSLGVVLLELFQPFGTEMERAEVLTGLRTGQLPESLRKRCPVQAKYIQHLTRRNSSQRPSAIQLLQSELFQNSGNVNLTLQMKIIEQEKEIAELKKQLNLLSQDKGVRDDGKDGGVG
Procedure, shortened: as §1

## C=CC(=O)Nc1ccc(C(=O)N2CC[C@@H](Nc3ncc(C#N)cn3)C2)cc1 [Compound 4, (R)-N-(4-(3-((5-cyanopyrimidin-2-yl)amino)pyrrolidine-1-carbonyl)phenyl)acrylamide]
IGF1R
  inhibition at 1 µM: -23%
LIMK1
  inhibition at 1 µM: 7%
PDGFRalpha
  inhibition at 1 µM: 7%
TRKB
  inhibition at 1 µM: -1%
IKKalpha
  inhibition at 1 µM: -8%
CAMK2B
  inhibition at 1 µM: -12%
CLK4
  inhibition at 1 µM: -2%
DYRK1B
  inhibition at 1 µM: 3%
FES
  inhibition at 1 µM: -2%
MARK3
  inhibition at 1 µM: -17%
MAP3K7/MAP3K7IP1
  inhibition at 1 µM: 2%
PAK4
  inhibition at 1 µM: -3%
SIK2
  inhibition at 1 µM: -4%
ACVR1
  inhibition at 1 µM: -1%
CK2alpha2
  inhibition at 1 µM: -14%
PKCalpha
  inhibition at 1 µM: -5%
CK1epsilon
  inhibition at 1 µM: -13%
CDK6/CycD1
  inhibition at 1 µM: 1%
GRK6
  inhibition at 1 µM: 0%
DAPK1
  inhibition at 1 µM: -15%
CDK3/CycE1
  inhibition at 1 µM: 25%
MEK2
  inhibition at 1 µM: 3%
CDK9/CycK
  inhibition at 1 µM: 21%
TSSK1
  inhibition at 1 µM: -10%
CDK2/CycE1
  inhibition at 1 µM: 9%
CAMKK1
  inhibition at 1 µM: 3%
RIPK5
  inhibition at 1 µM: 0%
DAPK2
  inhibition at 1 µM: 9%
CLK1
  inhibition at 1 µM: -3%
HRI
  inhibition at 1 µM: -8%
